Assay results published in paper PMC8330735 (Journal of Enzyme Inhibition and Medicinal Chemistry, 2021).

Columns and labels:
ovine COX-1 = target: T1, ovine COX-1 (Ovis aries, UniProt P05979); experiment: In vitro COX-1 inhibitory assay (colorimetric Cayman kit)
T1 sequence (P05979 25-600): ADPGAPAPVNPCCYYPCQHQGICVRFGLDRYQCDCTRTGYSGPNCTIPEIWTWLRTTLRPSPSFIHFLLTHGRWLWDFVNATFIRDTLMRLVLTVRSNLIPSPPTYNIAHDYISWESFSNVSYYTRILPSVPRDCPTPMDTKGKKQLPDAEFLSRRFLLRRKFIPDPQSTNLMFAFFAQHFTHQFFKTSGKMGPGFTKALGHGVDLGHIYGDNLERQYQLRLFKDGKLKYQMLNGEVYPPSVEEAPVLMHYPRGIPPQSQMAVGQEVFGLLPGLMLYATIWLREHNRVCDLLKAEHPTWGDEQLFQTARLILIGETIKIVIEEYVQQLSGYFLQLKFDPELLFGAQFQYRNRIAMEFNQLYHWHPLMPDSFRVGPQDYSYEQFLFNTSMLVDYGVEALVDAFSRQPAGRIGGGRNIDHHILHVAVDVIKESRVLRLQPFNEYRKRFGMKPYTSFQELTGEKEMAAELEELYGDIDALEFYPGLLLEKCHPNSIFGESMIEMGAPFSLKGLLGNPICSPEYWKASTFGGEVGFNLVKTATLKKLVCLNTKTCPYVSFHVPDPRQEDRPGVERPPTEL
Description: (§1) All the newly synthesised compounds were tested for their ability to inhibit COX-1 and COX-2 enzymes using a screening assay method.

human recombinant COX-2 = target: T2, human recombinant COX-2 (Homo sapiens, UniProt P35354); experiment: In vitro COX-2 inhibitory assay (colorimetric Cayman kit); conditions: for Selectivity Index (SI): COX-1 IC50/COX-2 IC50
T2 sequence (P35354 18-604): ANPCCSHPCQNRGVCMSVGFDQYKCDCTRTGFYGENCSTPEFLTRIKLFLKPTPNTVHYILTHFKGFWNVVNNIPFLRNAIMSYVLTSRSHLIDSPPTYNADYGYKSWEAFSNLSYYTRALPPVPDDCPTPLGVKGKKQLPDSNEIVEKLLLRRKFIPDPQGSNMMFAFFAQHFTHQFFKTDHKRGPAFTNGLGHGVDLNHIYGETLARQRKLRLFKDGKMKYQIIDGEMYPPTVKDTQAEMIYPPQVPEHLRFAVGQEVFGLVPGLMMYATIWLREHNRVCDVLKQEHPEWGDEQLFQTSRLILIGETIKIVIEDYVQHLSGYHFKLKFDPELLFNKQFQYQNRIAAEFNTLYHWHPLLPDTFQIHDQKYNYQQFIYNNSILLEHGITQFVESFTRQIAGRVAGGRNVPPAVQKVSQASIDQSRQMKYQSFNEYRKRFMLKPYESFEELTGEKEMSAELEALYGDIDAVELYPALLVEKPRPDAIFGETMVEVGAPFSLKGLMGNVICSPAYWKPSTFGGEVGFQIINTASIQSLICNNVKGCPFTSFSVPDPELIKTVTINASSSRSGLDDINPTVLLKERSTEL
Description: as §1

[1] = system: carrageenan-induced rat paw oedema; experiment: Carrageenan-induced rat paw oedema test; assay type: in vivo; conditions: compounds and celecoxib 50 mg/kg, ibuprofen and indomethacin 20 mg/kg; for Mean oedema thickness 1h: 1 h after carrageenan; for Mean oedema thickness 1h / Mean oedema thickness 2h / Mean oedema thickness 3h / Mean oedema thickness 4h / Mean oedema thickness 5h / Mean oedema thickness 24h / Mean oedema thickness 0h: mean ± SEM, n = 5; for Mean oedema thickness 2h: 2 h after carrageenan; for Mean oedema thickness 3h: 3 h after carrageenan; for Mean oedema thickness 4h: 4 h after carrageenan; for Mean oedema thickness 5h: 5 h after carrageenan; for Mean oedema thickness 24h: 24 h after carrageenan; for Mean oedema thickness 0h: before carrageenan (0 h); for Average oedema inhibition%: from area under the curve of all time points
Description: The rats were divided into nine groups (n = 5/group). All tested compounds were suspended in 1% Tween-80. Group 1, controls, were given the vehicle (1% Tween80, 10 ml/kg). […] The rats were given the drugs 1 h before the injection of carrageenan solution (1% in 0.9% NaCl, 0.1 ml) (Sigma Aldrich, USA) in the sub-planter tissue of the right hind paw. The paw thickness (mm) was measured using a calliper before (0 h) and after carrageenan injection at 1, 2, 3, 4, 5 and 24 h. The inhibition of oedema thickness was calculated using the following formula (control– drug/control) × 100.

[2] = system: NO production in LPS-activated RAW 264.7 macrophages; experiment: NO production in LPS-activated RAW 264.7 macrophages (DAF-FM); assay type: cell-based; conditions: Mus musculus, RAW264.7; LPS 1 µg/mL activated RAW 264.7
Description: HCA7 colorectal cancer cell line was obtained from Sigma. […] Louis, MO) containing 10% heat-inactivated foetal bovine serum (HI-FBS) (Gibco, USA), 100 μg/mL streptomycin (Invitrogen, USA), and […] penicillin (Invitrogen, USA)[40]. HCA7 and RAW 264.7 cells were cultured in Dulbecco's minimal essential media (DMEM, Invitrogen) containing 10% HI-FBS, sodium pyruvate (1 mM), penicillin ([…]), and streptomycin (100 mg/m)[41]^,[42]. […] Molecular Probes, USA). Briefly, RAW 264.7 cells were cultured in black 96-well plates (200,000 cells/mL, 100 µl/well) for 24 h. […] The fluorescence intensity, which is directly proportional to NO levels, was quantified, as detailed in our previous study. IC50 values were calculated from the dose–response curves.

[3] = system: ROS production in LPS-activated RAW 264.7 macrophages; experiment: ROS production in LPS-activated RAW 264.7 macrophages (DCFH-DA); assay type: cell-based; conditions: Mus musculus, RAW264.7; LPS 1 µg/mL activated RAW 264.7
Description: HCA7 colorectal cancer cell line was obtained from Sigma. […] Louis, MO) containing 10% heat-inactivated foetal bovine serum (HI-FBS) (Gibco, USA), 100 μg/mL streptomycin (Invitrogen, USA), and […] penicillin (Invitrogen, USA)[40]. HCA7 and RAW 264.7 cells were cultured in Dulbecco's minimal essential media (DMEM, Invitrogen) containing 10% HI-FBS, sodium pyruvate (1 mM), penicillin ([…]), and streptomycin (100 mg/m)[41]^,[42]. […] The cells were cultured, incubated with the different test compounds, and activated with LPS (1 µg/mL) as detailed above. […] IC50 values were calculated from the dose–response curves.

[4] = system: stomach ulceration in rats; conditions: rat, in vivo, 2 days
Description: The rats from the previous experiment were fasted for 12 h., followed by the administration of additional doses of the selected compounds or the two references for two consecutive days. Six hrs after the last treatment, the animals were sacrificed, and their stomachs were removed, washed with saline solution (0.9%) and examined for ulceration using a magnifying lens. The ulcer scores were estimated according to the method prescribed by Kulkarni and as detailed in our previous studies[36–38]. The following scores were individually assigned to each lesion: normal coloured stomach, 0; red colouration, 0.5; spot ulcers, 1; haemorrhagic streaks, 1.5; ulcer >3 but <5 mm, 2; and ulcers >5 mm, 3.

melting point [°C] | IC50 (ovine COX-1) [µM] | IC50 (human recombinant COX-2) [µM] | Selectivity Index (SI) (human recombinant COX-2) | SMILES | further results
194 to 198 | 10.9 ± 0.2 | 0.03 | 362.00 | O=C(CSc1nc2ccccc2c(=O)n1NC(=O)c1ccccc1)NNC(=O)c1ccccc1 [14a, N-(2-((2-(2-benzoylhydrazinyl)-2-oxoethyl)thio)-4-oxoquinazolin-3(4H)-yl)benzamide] | –
208 to 213 | 10.2 ± 0.14 | 0.04 | 254.75 | NNC(=O)CSc1nc2ccccc2c(=O)n1NC(=O)c1ccccc1 [13a, N-(2-((2-hydrazinyl-2-oxoethyl)thio)-4-oxoquinazolin-3(4H)-yl)benzamide] | –
– | – | – | – | COc1ccc2c(c1)c(CC(=O)O)c(C)n2C(=O)c1ccc(Cl)cc1 [Indomethacin, reference compound] | Mean oedema thickness 1h [1]: 2.00 ± 0.14 mm; Mean oedema thickness 2h [1]: 2.21 ± 0.12 mm; Mean oedema thickness 3h [1]: 1.82 ± 0.13 mm; Mean oedema thickness 4h [1]: 2.02 ± 0.16 mm; Mean oedema thickness 5h [1]: 1.87 ± 0.18 mm; Mean oedema thickness 24h [1]: 0.49 ± 0.10 mm; Mean oedema thickness 0h [1]: 0.00 ± 0.00 mm; Average oedema inhibition% [1]: 33.81%; IC50 [2]: 25.3 ± 1.01 µM; IC50 [3]: 68.9 ± 1.29 µM; Average Ulcer number [4]: 12.4; Lesion Incidence (%) [4]: 100%; Number of rats with ulcer [4]: 5
83 to 85 | 11.2 ± 0.13 | 0.03 | 373.67 | COc1ccc(C2N(NC(=O)Cc3c[nH]c4ccccc34)C(=O)c3ccccc3N2C)cc1 (centres unmarked) [4c, 2-(1 h-indol-3-yl)-N-(2-(4-methoxyphenyl)-1-methyl-4-oxo-1,4-dihydroquinazolin-3(2H)-yl)acetamide] | –
92 to 95 | 14.4 ± 0.16 | 0.04 | 359.25 | COc1ccc(C2N(NC(=O)C(C)c3ccc(CC(C)C)cc3)C(=O)c3ccccc3N2C)cc1 (centres unmarked) [7d, 2-(4-Isobutylphenyl)-N-(2-(4-methoxyphenyl)-1-methyl-4-oxo-1,4-dihydroquinazolin-3(2H)-yl) propenamide] | –
85 to 89 | 12.76 ± 0.1 | 0.05 ± 0.13 | 255.02 | CC(C)Cc1ccc(C(C)C(=O)NN2C(=O)c3ccccc3N(C)C2c2ccccc2)cc1 (centres unmarked) [7a, 2-(4-Isobutylphenyl)-N-(1-methyl-4-oxo-2-phenyl-1,4-dihydroquinazolin-3(2H)-yl) propenamide] | –
120 to 125 | 13.35 ± 0.1 | 0.04 | 333.75 | CC(C)Cc1ccc(C(C)C(=O)NN2C(=O)c3ccccc3N(C)C2c2ccc(Cl)cc2)cc1 (centres unmarked) [7b, N-(2-(4-chlorophenyl)-1-methyl-4-oxo-1,4-dihydroquinazolin-3(2H)-yl)-2–(4-isobutylphenyl) propenamide] | –
215 to 220 | 12.98 ± 0.12 | 0.04 | 324.5 | O=C(CSc1nc2ccccc2c(=O)n1NC(=O)c1ccccc1)NNC(=O)c1ccc(Cl)cc1 [14b, N-(2-((2-(2-(4-chlorobenzoyl)hydrazinyl)-2-oxoethyl)thio)-4 oxoquinazolin-3(4H)-yl)benzamide] | –
221 to 226 | 12.56 ± 0.11 | 0.04 | 314.00 | O=C(CSc1nc2ccccc2c(=O)n1NC(=O)Cc1ccccc1)NNC(=O)c1ccc(Cl)cc1 [14d, N-(2-((2-(2-(4-chlorobenzoyl)hydrazinyl)-2-oxoethyl)thio)-4-oxoquinazolin-3(4H)-yl)-2-phenylacetamide] | –
– | – | – | – | CC(C)Cc1ccc(C(C)C(=O)O)cc1 (centres unmarked) [Ibuprofen, reference compound] | Mean oedema thickness 1h [1]: 1.76 ± 0.07 mm; Mean oedema thickness 2h [1]: 2.00 ± 0.15 mm; Mean oedema thickness 3h [1]: 1.74 ± 0.08 mm; Mean oedema thickness 4h [1]: 1.23 ± 0.16 mm; Mean oedema thickness 5h [1]: 1.36 ± 0.18 mm; Mean oedema thickness 24h [1]: 0.48 ± 0.15 mm; Mean oedema thickness 0h [1]: 0.00 ± 0.00 mm; Average oedema inhibition% [1]: 47.18%; IC50 [2]: 18.8 ± 1.19 µM; IC50 [3]: 36.4 ± 1.45 µM; Average Ulcer number [4]: 3.8; Lesion Incidence (%) [4]: 100%; Number of rats with ulcer [4]: 5
90 to 95 | 11.8 ± 0.15 | 0.04 | 296.25 | CC(C)Cc1ccc(C(C)C(=O)NN2C(=O)c3ccccc3N(C)C2c2ccc(F)cc2)cc1 (centres unmarked) [7e] | –
